{"source": "patent US20070197530A1", "about": "“Amido compounds and their use as pharmaceuticals” (priority 2006, published 2007)", "origin": "cited, not measured here", "key": {"healthy volunteers": {"system": "healthy volunteers", "details": "after seven days of carbenoxolone treatment"}, "[1]": {"system": "pancreatic islet cells of ob/ob mice"}, "[2]": {"system": "primary hippocampal cells"}}, "data": [{"smiles": "CC1(C)[C@@H](OC(=O)CCC(=O)O)CC[C@]2(C)[C@H]3C(=O)C=C4[C@@H]5C[C@@](C)(C(=O)O)CC[C@]5(C)CC[C@@]4(C)[C@]3(C)CC[C@@H]12", "note": "[carbenoxolone]", "values": [{"measurement": "IOP reduced by", "setting": "healthy volunteers", "result": 18, "unit": "%"}, {"measurement": "glucose-stimulated insulin release", "setting": "[1]", "result": "improves glucose-stimulated insulin release"}, {"measurement": "protection from glucocorticoid-mediated exacerbation of excitatory amino acid neurotoxicity", "setting": "[2]", "result": "protects the cells from glucocorticoid-mediated exacerbation of excitatory amino acid neurotoxicity"}, {"measurement": "negative effects of glucocorticoids on bone nodule formation", "setting": "bone nodule formation", "result": "attenuate the negative effects of glucocorticoids on bone nodule formation"}]}]}
